“Also recorded” adds a separate entry of the source.
T1: RARα (Homo sapiens, UniProt P10276)
T1 construct: expressed in transfected cells; host or cells: P19 embryonal carcinoma cells
T1 sequence (P10276 1-462): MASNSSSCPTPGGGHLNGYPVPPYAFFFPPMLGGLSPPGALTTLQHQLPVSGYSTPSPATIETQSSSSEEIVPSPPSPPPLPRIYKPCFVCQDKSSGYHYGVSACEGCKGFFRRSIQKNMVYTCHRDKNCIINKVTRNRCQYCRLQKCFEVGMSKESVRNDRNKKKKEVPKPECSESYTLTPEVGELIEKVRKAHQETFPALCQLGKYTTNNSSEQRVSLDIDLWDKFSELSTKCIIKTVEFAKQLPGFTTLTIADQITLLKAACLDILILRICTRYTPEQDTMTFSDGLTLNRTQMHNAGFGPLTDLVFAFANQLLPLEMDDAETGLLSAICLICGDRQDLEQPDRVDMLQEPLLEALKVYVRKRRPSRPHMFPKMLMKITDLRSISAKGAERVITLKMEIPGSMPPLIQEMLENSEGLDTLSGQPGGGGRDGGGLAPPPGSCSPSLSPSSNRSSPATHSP

T2: RARβ (Homo sapiens, UniProt P10826)
T2 construct: expressed in transfected cells; host or cells: P19 embryonal carcinoma cells
T2 sequence (P10826 1-455): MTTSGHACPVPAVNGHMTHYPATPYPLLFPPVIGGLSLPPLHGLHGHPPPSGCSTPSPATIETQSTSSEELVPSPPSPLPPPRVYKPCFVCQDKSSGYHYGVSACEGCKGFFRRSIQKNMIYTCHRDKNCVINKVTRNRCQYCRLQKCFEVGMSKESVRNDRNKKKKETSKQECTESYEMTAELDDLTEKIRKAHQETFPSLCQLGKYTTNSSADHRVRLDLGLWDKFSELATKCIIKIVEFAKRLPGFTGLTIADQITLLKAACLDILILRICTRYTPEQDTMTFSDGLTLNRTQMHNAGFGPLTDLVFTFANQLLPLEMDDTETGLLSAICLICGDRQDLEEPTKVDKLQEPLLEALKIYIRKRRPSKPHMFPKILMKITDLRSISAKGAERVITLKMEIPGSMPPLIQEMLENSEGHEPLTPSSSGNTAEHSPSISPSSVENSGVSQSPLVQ

T3: RARγ (Homo sapiens, UniProt P13631)
T3 construct: expressed in transfected cells; host or cells: P19 embryonal carcinoma cells
T3 sequence (P13631 1-454): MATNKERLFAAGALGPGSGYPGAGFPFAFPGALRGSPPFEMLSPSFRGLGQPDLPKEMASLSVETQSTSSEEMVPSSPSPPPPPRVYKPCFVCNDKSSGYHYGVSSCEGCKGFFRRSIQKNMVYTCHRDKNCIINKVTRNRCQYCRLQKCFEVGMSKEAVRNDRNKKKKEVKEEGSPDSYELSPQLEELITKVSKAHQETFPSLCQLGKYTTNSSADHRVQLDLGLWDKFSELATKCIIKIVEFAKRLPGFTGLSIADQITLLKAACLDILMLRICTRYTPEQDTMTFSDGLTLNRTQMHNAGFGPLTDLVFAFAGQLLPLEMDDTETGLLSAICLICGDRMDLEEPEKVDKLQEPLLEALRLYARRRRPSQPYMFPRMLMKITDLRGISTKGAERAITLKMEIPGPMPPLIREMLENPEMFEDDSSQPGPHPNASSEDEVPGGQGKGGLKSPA


Columns and labels:
[1] = test system: wild-type limb mesenchyme micromass cultures; test: Cartilage nodule formation in wild-type limb bud micromass cultures (alcian blue staining); format: cell-based, murine
Method: Micromass cultures were prepared from murine E11.25 to E11.75 fore and hind limb buds as previously described with the following modifications (Cash et al. (1997) J. Cell Biol. 136, 445-457). After proteolytic digestion cells were filtered through a Cell Sieve ([…], Falcon) to obtain a single cell suspension. Culture media (40% Dulbecco's modified Eagle's medium, 60% F12 was supplemented with fetal bovine serum to 10%, Gibco-BRL) was changed daily. […] Addition/removal experiments included either adding or removing supplemented media on the indicated culture day, 24 hours after culture initiation was considered day 1. To detect transgene-expressing cells, cultures were fixed stained as previously described, with magenta-gal (BioSynth International Inc.) being substituted for X-gal. This was followed by alcian blue staining for cartilage-specific glycosaminoglycans. Alcian blue staining of magenta-gal stained cultures turned the red precipitate to a purple color, this is a result of incubating magenta-gal stained cells at pH 1. This double-staining technique enables transgene-expressing cells to be localized with respect to alcian blue stained cartilage nodules.

RARα = target: T1, RARα; test: Transient transfection: inhibition of all-trans RA induction of RARE luciferase construct in P19 cells, RARα; format: cell-based; details: 1 μM AGN194301, 100 nM all-trans RA
Method: (§1) The ability of AGN194301 to inhibit all-trans RA induction of an RARE containing luciferase construct was performed in P19 embryonal carcinoma cells as previously described with some modification (Underhill et al. (1994) Mol. Endo. 8, 274-285). P19 cells were seeded at a density of 1.5×10^4 cells/well in 6 well plates. […] Following transfection cells were washed and fresh media was added that contained 1×10^−7 M all-trans RA and various amounts of AGN194301. Twenty-four hours later cell extracts were prepared, and luciferase and β-galactosidase activity measured. Luciferase activity was normalized with β-galactosidase activity to control for differences in transfection efficiency.
(§2) RAR activity as used herein refers to the level of RA-induced transcriptional activity of the RARs. Micromass cultures were treated with the RARα-specific antagonist AGN194301 to examine whether inhibition of RARα activity stimulated cartilage formation. Addition of 1 μM AGN194301 to wild-type micromass cultures lead to a dramatic increase in nodule number with no apparent increase in nodule size as compared to untreated control cultures (FIG. 5G, J, M). […] To confirm that the concentrations utilized in these experiments inhibited RARα activity specifically, the level of RARα, RARβ and RARγ mediated RARE activation was measured with 100 nM all-trans RA in the presence of various concentrations of antagonist. […]

RARβ = target: T2, RARβ; test: Transient transfection: inhibition of all-trans RA induction of RARE luciferase construct in P19 cells, RARβ; format: cell-based; details: 1 μM AGN194301, 100 nM all-trans RA
Method: as §1, §2

RARγ = target: T3, RARγ; test: Transient transfection: inhibition of all-trans RA induction of RARE luciferase construct in P19 cells, RARγ; format: cell-based; details: 1 μM AGN194301, 100 nM all-trans RA
Method: as §1, §2

Row | RARα signaling (RARE activation) remaining (RARα) | RARβ signaling (RARE activation) remaining (RARβ) | RARγ signaling (RARE activation) remaining (RARγ) | Molecule | rescue of cartilage nodule formation in Noggin-treated cultures ([1]; 1 μM AGN194301 + 10 ng/ml Noggin, day 6) | increase in number of cartilage nodules (more nodules than untreated cultures) ([1]; 1 μM AGN194301, 8 days in culture, wild-type cultures, FIG. 5M) [%] | reduction of cartilage nodule formation in comparison to untreated controls ([1]; 10 ng/ml Noggin, wild-type cultures) [%] | number of cartilage nodules relative to control cultures ([1]; Noggin alone 10 ng/ml, FIG. 6d)
1 | ~0.3 % of controls | ~18 % of controls | ~26 % of controls | Cc1ccc(C2=CC(C)(C)Oc3c(Br)cc(C(=O)Nc4ccc(C(=O)O)c(F)c4)cc32)cc1 [AGN194301, 2-Fluoro-4-[(1-(8-bromo-2,2-dimethyl-4-(4-methylphenyl)-2-H-chromen-6-yl)-methanoyl)-amino]-benzoic acid] | resembled untreated cultures; also recorded: comparable to that of control cultures | 60 | – | –
2 | – | – | – | Noggin: purified Xenopus noggin protein, secreted inhibitor of BMP-2 and -4 (protein, UniProt P49011 20-222, looked up) Noggin: RIDQGGCQHYLHIRPAPSENLPLVDLIEHPDPIYDPKEKDLNETLLRTLMVGHFDPNFMATILPEERLGVEDLGELDLLLRQKPSGAMPAEIKGLEFYEGLQSKKHRLSKKLRRKLQMWLWSQTFCPVLYTWNDLGTRFWPRYVKVGSCYSKRSCSVPEGMVCKAAKSMHLTILRWRCQRRVQQKCAWITIQYPVISECKCSC | – | – | ~84 | ~10 % of that of control cultures

— patent US7608281B2, “Composition and use of RAR antagonists for promoting chondrogenesis” (T. Michael Underhill, priority 1999, dated 2009)
